Columns and labels:
Type in all cases: cell-based, human
[1] = test system: E7 (11-20) specific T cells; test: Initial THP-1 / T cell co-culture cytokine production (T cell culture with 6% E7 (11-20) specific T cells); design: IFNγ / TNF-α / IL-10 / IL-12p70 / IL-13 / IL-1β / IL-2 / IL-4 / IL-6 / IL-8: unit not given here
Method: (§1) Analysis Kits and Reagents: Analysis of cytokine concentrations in culture medium used the U-plex assay kits from Meso Scale Discovery. Expression of T cell receptors specific for E7 peptide bound to HLA-A*02:01 was detected using HLA-A*02:01/peptide tetramers from MBL International (Woburn, Mass.).
Infection of THP-1: The THP-1 cell line was infected with either ADXS11-001 or XFL7 by incubating 10^6 cells with dilutions of bacteria in a 1 mL volume of RPMI 1640 10% FBS. Incubation with bacteria was at 37° C., 5% CO2 for the indicated times, then extracellular bacteria were eliminated by washing and incubation in the presence of 50 μg/mL gentamicin for 1 hour at 37° C. After incubation with gentamicin the cells were washed again and resuspended to the desired cell concentration.
T cell cytokine expression analysis. An initial experiment using THP-1 as antigen presenting cells was performed using a T cell culture containing 6% E7 (11-20) specific T cells based upon staining with HLA-A*02:01/peptide tetramer. THP-1 cells were infected as described using two different concentrations of bacteria and then co-cultured with the T cells. Controls included uninfected THP-1 cells and THP-1 cells incubated with (exposed to) either the 9mer or 10mer peptide for one hour. After an overnight co-culture, medium was collected for analysis of cytokines.

10mer specific T cells = test: Co-culture of THP-1 with 10mer specific T cells, cytokine production; design: IFNγ / IL-10 / IL-13 / IL-1β / IL-2 / IL-5 / IL-6 / TNF-α: unit not given here; conditions: for IFNγ production, with 10mer specific T cells: Listeria MOI of 10, optical density
From the text: as §1
(§2) There were several possible explanations for the muted response with THP-1 cells infected with ADSX11: including failure of THP-1 cells to process the 10mer epitope from full length E7 protein, failure of the THP-1 cells to present the processed 10mer E7 peptide on HLA-A*02:01, insufficient incubation of the infected cells to allow synthesis of the E7 protein and accumulation of the MHC/peptide complex on the cell surface, and/or an inhibitory effect of gentamicin. A culture of T cells specific for the 9mer epitope was used as well as a new culture of 10mer specific T cells. The THP-1 cells were infected as before with XFL7 or ADXS11-001 at an MOI of 10. After treatment with gentamicin for one hour, the cells were cultured overnight in the absence of gentamicin. The next day the infected cells were collected and co-cultured with 9mer or 10mer specific T cells. These co-cultures were set up in standard X-VIVO 15 and X-VIVO 15 without gentamicin or phenol red. The co-cultures were incubated overnight before collecting medium for cytokine analysis. The medium was tested for IFNγ concentrations and optical density. […] In addition, the 10mer specific T cells recognized ADXS11-001 infected THP-1 when there was no gentamicin in the medium.
(§3) To further explore the importance of the overnight incubation of infected THP-1, THP-1 cells infected overnight were compared to THP-1 cells infected for 2 hours. T cells specific for 9mer and 10mer peptides were co-cultured with each of the THP-1 cells and with uninfected or peptide exposed THP-1. As before, medium was collected after an overnight co-culture and cytokines were measured.
(§4) Optimization of infection time required for E7 presentation. THP-1 infected and cultured overnight compared to THP-1 infected for 2 hours and used after gentamicin treatment. Both 9-mer specific T cells and 10-mer specific T cells used. Assays were performed using X-VIVO 15 medium without gentamicin. The following cytokines were measured: IFNγ, IL-1β, IL-2, IL-10, IL-12p70, IL-13, IL-5, IL-6, TNFα.

9mer specific T cells = test: Co-culture of THP-1 with 9mer specific T cells, cytokine production; design: IFNγ / IL-10 / IL-12p70 / IL-13 / IL-1β / IL-2 / IL-5 / IL-6 / TNF-α: unit not given here; conditions: for IFNγ production, with 9mer specific T cells: Listeria MOI of 10, optical density
From the text: as §1, §2, §3, §4

THP-1 cells = test: Cytokine production by THP-1 in the absence of T cells; conditions: Without gentamicin; Listeria MOI of 10; optical density
[2] = T cells and THP-1 incubated with peptide one hour, overnight co-culture
[3] = 10mer T cells + peptide exposed THP-1, overnight co-culture
[4] = 9mer T cells + peptide exposed THP-1, overnight co-culture

YMLDLQPETT [10mer]
IFNγ [1, 2]: 17140.7
IL-1β [1, 2]: 7.0
IL-2 [1, 2]: 315.2
IL-4 [1, 2]: 11.9
IL-6 [1, 2]: 19.6
IL-8 [1, 2]: 6099.7
IL-10 [1, 2]: 34.0
IL-12p70 [1, 2]: 7.4
IL-13 [1, 2]: 508.4
TNF-α [1, 2]: 1192.3
T cell cytokine response to peptide presented by THP-1 ([1]; relative to T cells co-cultured with control or uninfected THP-1 cells): elevated levels of IFNγ, IL-13, IL-2, IL-8 and TNFα
IFNγ production, with 10mer specific T cells (10mer specific T cells; 50 μg/mL gentamicin): 0.226
IFNγ (10mer specific T cells; [3]): 23328
IL-1β (10mer specific T cells; [3]): 3
IL-2 (10mer specific T cells; [3]): 452
IL-5 (10mer specific T cells; [3]): 1
IL-6 (10mer specific T cells; [3]): 31
IL-10 (10mer specific T cells; [3]): 12
IL-12p70 (10mer specific T cells; [3]): <LLOD
IL-13 (10mer specific T cells; [3]): 23
TNF-α (10mer specific T cells; [3]): 460
IFNγ production, with 10mer specific T cells (10mer specific T cells; Without gentamicin): 0.200
IFNγ production, with 9mer specific T cells (9mer specific T cells; 50 μg/mL gentamicin): 0.075
IFNγ (9mer specific T cells; [4]): 112
IL-1β (9mer specific T cells; [4]): <LLOD
IL-2 (9mer specific T cells; [4]): 3
IL-5 (9mer specific T cells; [4]): <LLOD
IL-6 (9mer specific T cells; [4]): 0
IL-10 (9mer specific T cells; [4]): <LLOD
IL-12p70 (9mer specific T cells; [4]): 0
IL-13 (9mer specific T cells; [4]): <LLOD
TNF-α (9mer specific T cells; [4]): 2
IFNγ production, with 9mer specific T cells (9mer specific T cells; Without gentamicin): 0.066
IFNγ production, THP-1 alone (THP-1 cells): 0.062

From patent US20210239681A1, “COMPOSITIONS AND METHODS FOR […] OF […]-BASED IMMUNOTHERAPEUTICS” (ADVAXIS, INC., priority 2018, published 2021)
